Reference: ChEMBL document CHEMBL5143608, “Peptide-based long-acting co-agonists of GLP-1 and cholecystokinin 1 receptors as novel anti-diabesity agents” (Eur J Med Chem, 2022)
The source made the active and inactive calls. The rule behind the calls is not given here.

Legend:
[1] = Renal toxicity in DIO C57BL/6 mouse assessed as blood urea nitrogen level at 25 nmol/kg, sc administered every 2 days for 3 weeks; format: organism-based; conditions: in vivo, 504 h, time 21 day
[2] = system: Mus musculus; test: Anti-diabesity activity against db/db mouse assessed as HbA1c level at 25 nmol/kg, sc administered every 2 days for 3 weeks; format: functional, organism-based; conditions: time 21.0 day
[3] = system: Mus musculus; test: Anorectic activity in ICR mouse assessed as decrease in food intake at 25 nmol/kg, ip and measured after 24 hrs; format: functional, organism-based
[4] = system: Mus musculus; test: Anti-diabesity activity against db/db mouse assessed as improvement in glucose tolerance at 25 nmol/kg, sc administered every 2 days for 12 weeks by OGTT; format: functional, organism-based
[5] = system: Mus musculus; test: Anti-diabesity activity in DIO C57BL/6 mouse assessed as reduction in body weight at 25 nmol/kg, sc administered every 2 days for 10 days; format: functional; conditions: C57BL/6, 240 h, time 10 day
[6] = system: Mus musculus; test: Hypoglycemic activity in db/db mouse assessed as improvement in glucose tolerance at 25 nmol/kg, ip administered 30 min before oral glucose administration and measured upto 120 mins by OGTT; format: functional, organism-based
[7] = system: Mus musculus; test: Anti-diabesity activity in db/db mouse assessed as decrease in fasted blood glucose level at 100 nmol/kg, sc administered once daily for 7 days; format: functional, organism-based; conditions: time 7.0 day
[8] = system: Mus musculus; test: Anti-diabesity activity against db/db mouse assessed as increase in insulin sensitivity by measuring reduction in plasma insulin level at 25 nmol/kg, sc administered every 2 days for 12 weeks by ELISA; format: functional, organism-based
[9] = Hepatotoxicity in db/db mouse assessed as alanine aminotransferase level in plasma at 25 nmol/kg, sc administered every 2 days for 12 weeks; format: toxicity, organism-based; conditions: in vivo, 2016 h
[10] = target: T1, CCK2R (gastrin/cholecystokinin type B receptor) (Homo sapiens, UniProt P32239); test: Agonist activity at human CCK2R expressed in HEK293 cells assessed as ERK1/2 phosphorylation incubated for 5 mins by AlphaScreen assay; format: functional, cell-based; conditions: human, HEK293 cells expressing human CCK2R
T1 sequence (P32239 whole entry): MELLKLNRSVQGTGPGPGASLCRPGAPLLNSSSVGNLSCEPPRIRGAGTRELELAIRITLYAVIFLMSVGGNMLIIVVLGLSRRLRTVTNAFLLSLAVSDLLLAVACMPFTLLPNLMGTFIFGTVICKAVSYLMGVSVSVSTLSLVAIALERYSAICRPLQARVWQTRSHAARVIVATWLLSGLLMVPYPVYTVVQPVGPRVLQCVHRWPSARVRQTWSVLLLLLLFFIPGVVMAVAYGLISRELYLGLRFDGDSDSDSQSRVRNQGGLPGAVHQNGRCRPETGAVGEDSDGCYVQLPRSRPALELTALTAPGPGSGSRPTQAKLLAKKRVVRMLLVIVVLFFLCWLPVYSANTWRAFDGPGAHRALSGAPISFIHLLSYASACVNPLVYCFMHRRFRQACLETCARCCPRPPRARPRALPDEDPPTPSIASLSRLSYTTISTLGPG

[11] = Renal toxicity in DIO C57BL/6 mouse assessed as creatinine level in serum at 100 nmol/kg, sc administered once daily for 7 days; format: organism-based; conditions: in vivo, 168 h, time 7 day
[12] = Toxicity in Sprague-Dawley rat assessed as induction of Pica behaviour by measuring kaolin intake at 25 nmol/kg, ip measured after 24 hrs; format: organism-based; conditions: in vivo
[13] = system: Mus musculus; test: Anti-diabesity activity in DIO C57BL/6 mouse assessed as reduction in body weight at 100 nmol/kg, sc administered every 2 days for 10 days; format: functional; conditions: C57BL/6, 240 h, time 10 day
[14] = system: Mus musculus; test: Anti-diabesity activity against db/db mouse assessed as reduction in HbA1c level at 25 nmol/kg, sc administered every 2 days for 12 weeks; format: functional, organism-based
[15] = system: Mus musculus; test: Anti-diabesity activity against db/db mouse assessed as improvement in glucose tolerance level at 25 nmol/kg, sc administered every 2 days for 6 weeks followed by saline treatment for 6 weeks and measured during second 6 weeks by OGTT; format: functional, organism-based
[16] = system: Mus musculus; test: Anti-diabesity activity against DIO C57BL/6 mouse assessed as improvement in glucose tolerance at 25 nmol/kg, sc administered every 2 days for 3 weeks by OGTT; format: functional, organism-based; conditions: time 21.0 day
[17] = system: Mus musculus; test: Anti-diabesity activity in db/db mouse assessed as reduction in body weight at 100 nmol/kg, sc administered once daily for 7 days; format: functional, organism-based; conditions: time 7.0 day
[18] = system: Mus musculus; test: Anti-diabesity activity against db/db mouse assessed as reduction in HbA1c level at 25 nmol/kg, sc administered every 2 days and measured on day 43; format: functional, organism-based; conditions: time 43.0 day
[19] = system: Mus musculus; test: Anti-diabesity activity against db/db mouse assessed as reduction in cumulative food intake at 25 nmol/kg, sc administered every 2 days for 3 weeks; format: functional, organism-based; conditions: time 21.0 day
[20] = system: Mus musculus; test: Anti-diabesity activity against db/db mouse assessed as reduction in fasting blood glucose level at 25 nmol/kg, sc administered every 2 days for 6 weeks followed by saline treatment for 6 weeks and measured during first 6 weeks; format: functional, organism-based
[21] = system: Mus musculus; test: Anti-diabesity activity against DIO C57BL/6 mouse assessed as reduction in cumulative food intake at 25 nmol/kg, sc administered every 2 days for 3 weeks; format: functional, organism-based; conditions: time 21.0 day
[22] = system: Mus musculus; test: Anti-diabesity activity against DIO C57BL/6 mouse assessed as decrease in fat mass at 25 nmol/kg, sc administered every 2 days for 3 weeks; format: functional, organism-based; conditions: time 21.0 day
[23] = Renal toxicity in db/db mouse assessed as blood urea nitrogen level in serum at 25 nmol/kg, sc administered every 2 days for 12 weeks; format: organism-based; conditions: in vivo, 2016 h
[24] = Renal toxicity in DIO C57BL/6 mouse assessed as creatinine level in serum at 25 nmol/kg, sc administered every 2 days for 3 weeks; format: organism-based; conditions: in vivo, 504 h, time 21 day
[25] = Hepatotoxicity in DIO C57BL/6 mouse assessed as alanine aminotransferase level in plasma at 100 nmol/kg, sc administered once daily for 7 days; format: toxicity, organism-based; conditions: in vivo, 168 h, time 7 day
[26] = Half life in Sprague-Dawley rat at 25 nmol/kg, sc by LC-MS/MS analysis; format: ADME, organism-based; conditions: in vivo
[27] = system: BRIN-BD11; test: Insulinotropic activity in rat BRIN-BD11 cells assessed as increase in insulin secretion incubated for 20 mins by radioimmunoassay; format: functional, cell-based; conditions: DDE = dose-dependent effect
[28] = system: Mus musculus; test: Anti-diabesity activity against DIO C57BL/6 mouse assessed as increase in adiponectin level in plasma at 25 nmol/kg, sc administered every 2 days for 3 weeks by ELISA; format: functional, organism-based; conditions: time 21.0 day
[29] = system: Mus musculus; test: Anti-diabesity activity against DIO C57BL/6 mouse assessed as reduction in cholesterol level in serum at 25 nmol/kg, sc administered every 2 days for 3 weeks; format: functional, organism-based; conditions: time 21.0 day
[30] = Half life in Sprague-Dawley rat at 25 nmol/kg, iv by LC-MS/MS analysis; format: ADME, organism-based; conditions: in vivo
[31] = system: Mus musculus; test: Anti-diabesity activity against DIO C57BL/6 mouse assessed as increase in insulin sensitivity by measuring reduction in circulating insulin levels at 25 nmol/kg, sc administered every 2 days for 3 weeks by ELISA; format: functional, organism-based; conditions: time 21.0 day
[32] = Hepatotoxicity in db/db mouse assessed as alanine aminotransferase level in plasma at 100 nmol/kg, sc administered once daily for 7 days; format: toxicity, organism-based; conditions: in vivo, 168 h, time 7 day
[33] = Pancreatic insult activity in DIO C57BL/6 mouse assessed as lipase level in serum at 25 nmol/kg, sc administered every 2 days for 3 weeks; format: toxicity, organism-based; conditions: in vivo, 504 h, time 21 day

SMILES	Activity [1]	Activity [2]	Activity [3]	Activity [4]	inhibition in vivo at 0.025 µmol/kg [5] [%]	Activity [6]	Activity [7]	Activity [8]	Activity [9]	EC50 at 5 min [10] [nM]	Activity [11]	Activity [12]	inhibition in vivo at 0.1 µmol/kg [13] [%]	Activity [14]	Activity [15]	Activity [16]	Activity [17]	Activity [18]	Activity [19]	Activity [20]	other results
CCCC[C@H](NC(=O)[C@H](Cc1ccc(CS(=O)(=O)O)cc1)NC(=O)[C@H](CC(=O)O)NC(=O)COCCOCCNC(=O)COCCOCCNC(=O)[C@H](CCCNC(=N)N)NC(=O)CNC(=O)[C@H](CCCCN)NC(=O)[C@@H](NC(=O)[C@H](CC(C)C)NC(=O)[C@H](Cc1c[nH]c2ccccc12)NC(=O)[C@H](C)NC(=O)[C@@H](NC(=O)[C@H](Cc1ccccc1)NC(=O)[C@H](CCC(=O)O)NC(=O)[C@H](CCCCNC(=O)COCCOCCNC(=O)COCCOCCNC(=O)CC[C@H](NC(=O)CCCCCCCCCCCCCCCCC(=O)O)C(=O)O)NC(=O)[C@H](C)NC(=O)[C@H](C)NC(=O)[C@H](CCC(N)=O)NC(=O)CNC(=O)[C@H](CCC(=O)O)NC(=O)[C@H](CC(C)C)NC(=O)[C@H](Cc1ccc(O)cc1)NC(=O)[C@H](CO)NC(=O)[C@H](CO)NC(=O)[C@@H](NC(=O)[C@H](CC(=O)O)NC(=O)[C@H](CO)NC(=O)[C@@H](NC(=O)[C@H](Cc1ccccc1)NC(=O)[C@@H](NC(=O)CNC(=O)[C@H](CCC(=O)O)NC(=O)[C@H](C)NC(=O)[C@@H](N)Cc1cnc[nH]1)[C@@H](C)O)[C@@H](C)O)C(C)C)[C@@H](C)CC)C(C)C)C(=O)NCC(=O)N[C@@H](Cc1c[nH]c2ccccc12)C(=O)N[C@@H](CCCC)C(=O)N(C)[C@H](CC(=O)O)C(=O)N(C)[C@@H](Cc1ccccc1)C(N)=O	Non-Toxic	Active	Active	Active	17.9	Active	Active	Active	Non-Toxic	> 100	Non-Toxic	Non-Toxic	27.1	Active	Active	Active	Active	Active	Active	Active	Activity [21]: Active; Activity [22]: Active; Activity [23]: Non-Toxic; Activity [24]: Non-Toxic; Activity [25]: Non-Toxic; half-life [26]: 9.2 h; Activity [27]: Dde; Activity [28]: Active; Activity [29]: Active; half-life [30]: 6.3 h; Activity [31]: Active; Activity [32]: Non-Toxic; Activity [33]: Non-Toxic
CCCC[C@H](NC(=O)[C@H](Cc1ccc(CS(=O)(=O)O)cc1)NC(=O)[C@H](CC(=O)O)NC(=O)COCCOCCNC(=O)COCCOCCNC(=O)[C@H](CCCCN)NC(=O)CNC(=O)[C@H](CCCCN)NC(=O)[C@@H](NC(=O)[C@H](CC(C)C)NC(=O)[C@H](Cc1c[nH]c2ccccc12)NC(=O)[C@H](CCC(=O)O)NC(=O)[C@@H](NC(=O)[C@H](Cc1ccccc1)NC(=O)[C@H](CCC(=O)O)NC(=O)[C@H](CCCCNC(=O)COCCOCCNC(=O)COCCOCCNC(=O)CC[C@H](NC(=O)CCCCCCCCCCCCCCCCC(=O)O)C(=O)O)NC(=O)[C@H](C)NC(=O)[C@H](C)NC(=O)[C@H](CCC(=O)O)NC(=O)[C@H](CCC(=O)O)NC(=O)[C@H](CCC(=O)O)NC(=O)[C@H](CC(C)C)NC(=O)[C@@H](NC(=O)[C@H](CCC(=O)O)NC(=O)[C@@H](NC(=O)[C@@H](NC(=O)[C@H](CC(=O)O)NC(=O)[C@H](CC(N)=O)NC(=O)[C@@H](NC(=O)[C@H](Cc1ccc(O)cc1)NC(=O)[C@@H](NC(=O)CNC(=O)[C@H](CCC(=O)O)NC(=O)C(C)(C)NC(=O)[C@@H](N)Cc1cnc[nH]1)[C@@H](C)O)[C@@H](C)O)C(C)C)[C@@H](C)O)[C@@H](C)O)[C@@H](C)CC)[C@@H](C)CC)C(=O)NCC(=O)N[C@@H](Cc1c[nH]c2ccccc12)C(=O)N[C@@H](CCCC)C(=O)N(C)[C@H](CC(=O)O)C(=O)N(C)[C@@H](Cc1ccccc1)C(N)=O	Non-Toxic	Active	Active	Active	21.2	Active	Active	Active	Non-Toxic	> 100	Non-Toxic	Non-Toxic	30.6	Active	Active	Active	Active	Active	Active	Active	Activity [21]: Active; Activity [22]: Active; Activity [23]: Non-Toxic; Activity [24]: Non-Toxic; Activity [25]: Non-Toxic; half-life [26]: 16.8 h; Activity [27]: Dde; Activity [28]: Active; Activity [29]: Active; half-life [30]: 9.1 h; Activity [31]: Active; Activity [32]: Non-Toxic; Activity [33]: Non-Toxic
